Experimental data as given in patent US20180170941A1 (priority 2016, published 2018).

How the values were obtained:
aged-impaired (AI) rats [1] = experiment: Radial Arm Maze (RAM) behavioral task, spatial memory retention; type: in vivo, rat
Procedure: The effects of methyl 3,5-diphenylpyridazine-4-carboxylate on the in vivo spatial memory retention of aged-impaired (AI) rats were assessed in a Radial Arm Maze (RAM) behavioral task using vehicle control and four different dosage levels of methyl 3,5-diphenylpyridazine-4-carboxylate (0.1 mg/kg, 0.3 mg/kg, 1 mg/kg and 3 mg/kg, ip). RAM behavioral tasks were performed on eight AI rats. All five treatment conditions (vehicle and four dosage levels) were tested on all eight rats.
The RAM apparatus used consisted of eight equidistantly-spaced arms. An elevated maze arm (7 cm width×75 cm length) projected from each facet of an octagonal center platform (30 cm diameter, 51.5 cm height). Clear side walls on the arms were 10 cm high and were angled at 65° to form a trough. A food well (4 cm diameter, 2 cm deep) was located at the distal end of each arm. Froot Loops™ (Kellogg Company) were used as rewards. Blocks constructed of Plexiglas™ (30 cm height×12 cm width) could be positioned to prevent entry to any arm. Numerous extra maze cues surrounding the apparatus were also provided.
The AI rats were initially subjected to a pre-training test (Chappell et al. Neuropharmacology 37: 481-487, 1998). […]

GABAA α5 receptor = biological target: T1, GABAA α5 receptor (Rattus norvegicus, UniProt P18508+P19969); experiment: GABAA α5 receptor occupancy with Ro 15-4513 tracer, hippocampus vs cerebellum; type: in vivo, Long Evans rats; conditions: for Ro 15-4513 binding in hippocampus / cerebellum levels (binding) of Ro 15-4513: 0.01-10 mg/kg
T1 construct: from tissue
Procedure: Food and water were available ad libitum.
The (100 μl) supernatant solution was diluted by […] of sterile water (pH 6.5).

aged-impaired (AI) rats [2] = experiment: Morris water maze behavioral task, ICV infusion; type: in vivo, rat; conditions: 100 μg ICV
Text: Cognitively impaired aged rats were implanted unilaterally with a cannula into the lateral ventricle. Stereotaxic coordinates were 1.0 mm posterior to bregma, 1.5 mm lateral to midline, and 3.5 mm ventral to the skull surface. After about a week of recovery, the rats were pre-trained in a water maze for 2 days (6 trials per day) to locate a submerged escape platform hidden underneath the surface of the pool, in which the escape platform location varied from day to day. No intracerebroventricular (ICY) infusion was given during pre-training.
After pre-training, rats received ICV infusion of either 100 μg 6,6 dimethyl-3-(3-hydroxypropypthio-1-(thiazol-2-yl)-6,7-dihydro-2-benzothiophen-4(5H)-one (n=6) in 5 μl DMSO or vehicle DMSO (n=5) 40 min prior to water maze training and testing. Training consisted of 8 trials per day for 2 days where the hidden escape platform remained in the same location. Rats were given 60 seconds to locate the platform with a 60 seconds inter-trial interval. The rats were given a probe test (120 seconds) 24 hr. after the end of training where the escape platform was removed. During the training, there were 4 blocks, where each block had 4 training trials.
During a test trial 24 hr. after training, the escape platform was removed. The search/swim pattern of the rats was used to measure whether the rats remember where the escape platform was located during pre-trial training in order to test for the long-term memory of the rats. In this trial, “target annulus” is a designated area 1.5 times the size of the escape platform around the area where the platform was located during pre-trial training. “Opposite annulus” is a control area of the same size as the size of the target annulus, which is located opposite to the target annulus in the pool. If the rats had good long term memory, they would tend to search in the area surrounding the location where the platform was during the pre-trial training (i.e., the “target” annulus; and not the “opposite” annulus). “Time in annulus” is the amount of time in seconds that the rat spent in the target or opposite annulus area. “Number (#) of crossings” in annulus is the number of times the rat swam across the target or opposite annulus area.

MAM-treated rats = conditions: cited from earlier work
[3] = biological target: T2, α5β3γ2 GABAA receptors (Ltk cell membranes) (Homo sapiens, UniProt P18507+P31644); experiment: Binding activity of test compounds on GABAAR: inhibition of [3H]Ro15-1788 binding; conditions: GABA α5 Binding Ki Values, inhibition of [3H]Ro15-1788 binding; reported as ranges
T2 construct: membranes
Summary of the method: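 Membranes from dexamethasone-induced Ltk cells (α5 line: 0.5 μM, 1 day); binding with [3H]Ro15-1788 for 1 h at 4 °C in 50 mM KH2PO4, 1 mM EDTA, 0.2 M KCl, pH 7.4, 0.2 mg/ml α5 protein. Nonspecific binding defined by 10 μM diazepam; filtration, scintillation counting, triplicates.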

[4] = i.v., listed as Methyl 3,5-diphenylpyridazine-4-carboxylate

T1 sequence (P19969 32-464 limits assumed): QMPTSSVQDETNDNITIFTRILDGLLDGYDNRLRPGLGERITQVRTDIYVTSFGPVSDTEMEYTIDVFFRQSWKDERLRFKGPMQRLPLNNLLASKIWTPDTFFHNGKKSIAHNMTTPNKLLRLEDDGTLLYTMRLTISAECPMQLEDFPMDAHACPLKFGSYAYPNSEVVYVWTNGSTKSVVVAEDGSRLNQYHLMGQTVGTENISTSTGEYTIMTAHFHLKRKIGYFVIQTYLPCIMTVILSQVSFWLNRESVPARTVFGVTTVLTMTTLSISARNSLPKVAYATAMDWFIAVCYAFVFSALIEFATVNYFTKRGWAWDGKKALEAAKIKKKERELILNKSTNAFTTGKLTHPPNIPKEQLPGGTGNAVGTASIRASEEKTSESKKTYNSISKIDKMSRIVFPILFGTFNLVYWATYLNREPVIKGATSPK
T1 sequence (P18508 39-466): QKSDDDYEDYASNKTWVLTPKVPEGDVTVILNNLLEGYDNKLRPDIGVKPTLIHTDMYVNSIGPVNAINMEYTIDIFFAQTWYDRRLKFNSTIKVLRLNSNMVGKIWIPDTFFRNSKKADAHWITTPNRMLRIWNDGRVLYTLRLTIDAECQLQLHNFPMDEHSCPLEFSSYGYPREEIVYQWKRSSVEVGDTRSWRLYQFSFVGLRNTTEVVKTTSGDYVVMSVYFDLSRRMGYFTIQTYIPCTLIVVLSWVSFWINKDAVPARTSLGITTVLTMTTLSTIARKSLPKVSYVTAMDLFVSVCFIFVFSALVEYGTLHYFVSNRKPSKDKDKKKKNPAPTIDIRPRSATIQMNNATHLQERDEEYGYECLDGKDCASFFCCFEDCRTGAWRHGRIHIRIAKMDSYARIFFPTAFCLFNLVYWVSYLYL
T2 sequence (P31644 32-462): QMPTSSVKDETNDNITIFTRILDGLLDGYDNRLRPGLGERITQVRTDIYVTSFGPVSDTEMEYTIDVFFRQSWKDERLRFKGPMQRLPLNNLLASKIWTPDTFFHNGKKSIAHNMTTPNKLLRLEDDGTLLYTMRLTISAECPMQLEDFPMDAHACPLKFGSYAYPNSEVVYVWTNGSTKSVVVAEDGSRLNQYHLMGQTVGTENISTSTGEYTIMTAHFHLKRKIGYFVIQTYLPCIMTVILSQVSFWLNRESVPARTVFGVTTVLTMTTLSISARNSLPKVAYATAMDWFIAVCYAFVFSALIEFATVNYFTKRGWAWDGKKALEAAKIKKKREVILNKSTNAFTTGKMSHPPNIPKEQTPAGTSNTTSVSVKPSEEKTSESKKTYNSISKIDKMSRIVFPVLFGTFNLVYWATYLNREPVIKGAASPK
T2 sequence (P28472 26-473 partner): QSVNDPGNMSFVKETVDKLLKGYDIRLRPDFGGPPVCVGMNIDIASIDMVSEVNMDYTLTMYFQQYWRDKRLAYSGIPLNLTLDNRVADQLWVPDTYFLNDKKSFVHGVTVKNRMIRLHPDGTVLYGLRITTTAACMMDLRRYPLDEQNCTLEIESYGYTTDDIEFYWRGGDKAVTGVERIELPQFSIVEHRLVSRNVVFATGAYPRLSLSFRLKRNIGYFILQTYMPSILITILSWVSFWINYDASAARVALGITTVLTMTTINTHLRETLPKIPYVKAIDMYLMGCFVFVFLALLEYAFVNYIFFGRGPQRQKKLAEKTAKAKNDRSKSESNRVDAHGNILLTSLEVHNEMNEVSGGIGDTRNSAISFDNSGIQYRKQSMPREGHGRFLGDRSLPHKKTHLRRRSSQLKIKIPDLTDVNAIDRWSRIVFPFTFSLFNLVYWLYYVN
T2 sequence (P18507 40-475): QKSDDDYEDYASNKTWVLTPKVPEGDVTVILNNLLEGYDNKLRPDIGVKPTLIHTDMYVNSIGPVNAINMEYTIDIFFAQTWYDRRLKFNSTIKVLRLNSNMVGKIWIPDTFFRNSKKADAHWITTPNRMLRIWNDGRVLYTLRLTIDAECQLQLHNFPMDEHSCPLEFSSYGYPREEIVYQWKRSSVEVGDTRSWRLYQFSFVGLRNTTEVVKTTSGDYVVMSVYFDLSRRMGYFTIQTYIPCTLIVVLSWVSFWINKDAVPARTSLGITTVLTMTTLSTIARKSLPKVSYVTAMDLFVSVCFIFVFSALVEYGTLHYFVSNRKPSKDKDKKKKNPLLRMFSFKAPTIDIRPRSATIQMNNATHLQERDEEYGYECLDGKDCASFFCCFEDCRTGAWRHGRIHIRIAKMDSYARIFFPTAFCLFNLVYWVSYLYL

Compound: COC(=O)c1c(-c2ccccc2)cnnc1-c1ccccc1 [methyl 3,5-diphenylpyridazine-4-carboxylate]
- memory performance relative to vehicle control (aged-impaired (AI) rats [1]; 3 mg/kg ip, two-hour delay, t(7)=4.233, p=0.004): significantly improved memory performance
- Ro 15-4513 binding in hippocampus (GABAA α5 receptor; i.v.): blocked
- cerebellum levels (binding) of Ro 15-4513 (GABAA α5 receptor; i.v.): did not affect
- Ro 15-4513 binding in hippocampus (GABAA α5 receptor; [4]): dose-dependently reduced
- cerebellum levels (binding) of Ro 15-4513 (GABAA α5 receptor; [4]): without affecting
- RO required for cognitive efficacy in this model (GABAA α5 receptor; from exposure in aged rats at 3 mg/kg, i.p.): 30-40%
- GABAA α5 receptors occupied at exposures behaviorally active in aged-impaired rats (GABAA α5 receptor; hippocampus exposure-occupancy relationship (FIG. 4)): about 32%
- ED50 of receptor occupancy, ratio method (GABAA α5 receptor; i.v.): 1.8 mg/kg

Compound: CCOC(=O)c1ncn2c1Cn1c(C)nnc1-c1cc(OC)ccc1-2 [Ethyl 3-methoxy-7-methyl-9H-benzo[f]imidazo[1,5-a][1,2,4]tri]
- Ro 15-4513 binding in hippocampus (GABAA α5 receptor; i.v.): blocked
- cerebellum levels (binding) of Ro 15-4513 (GABAA α5 receptor; i.v.): did not affect

Compound: CCOC(=O)c1ncn2c1Cn1c(C)nnc1-c1cc(OC)ccc1-2 [ethyl 3-methoxy-7-methyl-9H-benzo[f]imidazo[1,5-a][1,2,4]tri]
- memory performance relative to vehicle control (aged-impaired (AI) rats [1]; 3 mg/kg, four-hour delay, p=0.004 or p=0.018): significantly improved memory performance
- Ro 15-4513 binding in hippocampus (GABAA α5 receptor; i.v.): reduced
- cerebellum levels (binding) of Ro 15-4513 (GABAA α5 receptor; i.v.): without affecting

Compound: CCOC(=O)c1ncn2c1CN(C)C(=O)c1cc(N=[N+]=[N-])ccc1-2 [Ro 15-4513]
- Ro 15-4513 level in hippocampus compared with cerebellum (GABAA α5 receptor; tracer 1 μg/kg, i.v., after vehicle): > 5 fold

Compound: CC1(C)CC(=O)c2c(SCCCO)sc(-c3nccs3)c2C1 [6,6 dimethyl-3-(3-hydroxypropyl)thio-1-(thiazol-2-yl)-6,7-dihydro-2-benzothiophen-4(5H)-one]
- time to find the escape platform, block 1 (beginning of training) (aged-impaired (AI) rats [2]): about 24 seconds
- time to find the escape platform, block 4 (end of training) (aged-impaired (AI) rats [2]): about 9.6 seconds
- number of crossings of target annulus compared with opposite annulus, probe test (aged-impaired (AI) rats [2]; 24 hr. after training): more often
- time in target annulus compared with opposite annulus, probe test (aged-impaired (AI) rats [2]; 24 hr. after training): significantly more time

Compound: C#Cc1ccc2c(c1)C(c1ccccc1F)=N[C@H](C)c1c(C(=O)OCC)ncn1-2 [SH-053-2′F-R—CH3]
- increased locomotor response to amphetamine in MAM-treated rats (MAM-treated rats; rat, in vivo): reduced
- number of spontaneously active DA neurons in the ventral tegmental area (VTA) of MAM rats (MAM-treated rats; systemic or infused into the ventral HPC): to levels observed in saline-treated rats

Compound: CCOC(=O)c1ncn2c1Cc1c(Cc3cccc(C#N)c3)nnn1-c1cc(OC)ccc1-2 [Compound 53]
- Ki [3]: < 100 nM

Compound: CCOC(=O)c1ncn2c1Cc1c(Cc3ccccc3)nnn1-c1ccccc1-2 [Compound 5]
- Ki [3]: < 100 nM

Compound: COc1ccc2c(c1)-n1nncc1Cc1c(C3=N[C@@H](c4ccc(Cl)cc4)CO3)ncn1-2 [Compound 368]
- Ki [3]: < 100 nM

Compound: COCc1nnc2n1Cc1c(-c3nc(C)no3)ncn1-c1ccc(C#N)cc1-2 [Compound 465]
- Ki [3]: < 100 nM

Compound: COc1ccc2c(c1)-n1nncc1Cc1c(C3=N[C@@H](c4cccc5ccccc45)CO3)ncn1-2 [Compound 370]
- Ki [3]: 100 to 1000 nM

Compound: CCOCc1nnc2n1Cc1c(C#Cc3ccccc3F)ncn1-c1ccc(Cl)cc1-2 [Compound 307]
- Ki [3]: < 100 nM
